Experiments:
Oryctolagus cuniculus [1] = species on record: Oryctolagus cuniculus; test: Cardiotoxicity in rabbit assessed as liability for torsadogenic arrhythmia; format: toxicity
Oryctolagus cuniculus [2] = species on record: Oryctolagus cuniculus; test: Cardiotoxicity in rabbit assessed as effect on conduction; format: toxicity
HepG2 = test: Cytotoxicity in human HepG2 cells assessed as effect on cell membrane; format: cell-based
[3] = Oral bioavailability in CD rat at 30 mg/kg administered as suspension; format: ADME, organism-based; conditions: in vivo
[4] = Kinetic solubility of the compound in PBS using MeOH at pH 7.4 by NMR analysis; format: physicochemical; conditions: read-out: Kinetic_solubility
[5] = Stability of the compound in solid state at 40 to 50 degC 75 % relative humidity after 1 month by NMR analysis; conditions: 730.5 h

bioavailability [3]: 101%
solubility kinetic [4]: > 270 µg/mL
Stability [5]: Stable
SMILES: COc1cccc2c1c(NS(=O)(=O)c1ccc(Cl)s1)nn2Cc1cccc(CNC(=O)C(C)(C)O)c1
Activity (Oryctolagus cuniculus [1]): Non-toxic
Activity (Oryctolagus cuniculus [2]): Non-toxic
Activity (HepG2): Non-toxic

From ChEMBL document CHEMBL2321840, “Synthesis and structure-activity relationships of indazole arylsulfonamides as allosteric CC-chemokine receptor 4 (CCR4) antagonists” (J Med Chem, 2013)
